Source: ChEMBL document CHEMBL6182898, “Design, synthesis and bioevaluation of novel hydrazide derivatives as enhancers of immunotherapy and DNA-damage response in antitumor therapy” (Eur J Med Chem, 2025)
Activity calls are given as the source filed them. The rule behind the calls is not given here.

Experiments:
[1] = tested on: 4T1; test: cells; format: functional; settings: Mus musculus, time 72 hrs
[2] = tested on: B16-F10; test: Antiproliferative activity against mouse B16-F10 cells incubated for 72 hrs by MTT assay; format: functional, cell-based; settings: B16-F10, 72 h
[3] = biological target: T1, Histone deacetylase 3 (Mus musculus) (UniProt O88895); test: Inhibition of HDAC3 in mouse B16-F10 cells assessed as increase in Ac-H3 level at 2.5 uM incubated for 24 hrs by immunofluorescence based analysis; format: cell-based
T1 sequence (whole entry): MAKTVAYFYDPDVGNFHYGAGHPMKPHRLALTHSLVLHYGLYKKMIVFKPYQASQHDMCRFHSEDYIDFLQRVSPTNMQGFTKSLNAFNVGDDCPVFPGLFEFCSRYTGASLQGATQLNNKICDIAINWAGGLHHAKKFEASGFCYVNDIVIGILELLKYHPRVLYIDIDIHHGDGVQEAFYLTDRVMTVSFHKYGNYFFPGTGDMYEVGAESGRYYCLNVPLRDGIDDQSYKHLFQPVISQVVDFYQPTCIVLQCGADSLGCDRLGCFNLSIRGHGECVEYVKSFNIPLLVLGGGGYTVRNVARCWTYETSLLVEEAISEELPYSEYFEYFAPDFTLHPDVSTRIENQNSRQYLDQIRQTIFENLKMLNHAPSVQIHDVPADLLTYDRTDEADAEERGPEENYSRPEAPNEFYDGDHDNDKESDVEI

[4] = tested on: B16-F10; test: Induction of apoptosis in mouse B16-F10 cells assessed as late-stage apoptosis at 5 uM incubated for 48 hrs by Annexin V-FITC/PI staining based flow cytometry relative to control; format: functional
[5] = tested on: SK-OV-3; test: cells; format: functional; settings: Homo sapiens, time 72 hrs
[6] = tested on: B16-F10; test: Induction of apoptosis in mouse B16-F10 cells incubated for 48 hrs by Annexin V-FITC/PI staining based flow cytometry; format: functional, cell-based; settings: dose 2.5-10 µM
[7] = tested on: K562; test: cells; format: functional; settings: Homo sapiens, time 72 hrs
[8] = tested on: K562; test: Antiproliferative activity against human K562 cells incubated for 72 hrs by CCK8 assay; format: functional, cell-based; settings: K562, 72 h
[9] = tested on: B16-F10; test: Inhibition of cell migration in mouse B16-F10 cells at 5 uM by transwell assay relative to control; format: functional
[10] = tested on: 4T1; test: Antiproliferative activity against mouse 4T1 cells incubated for 72 hrs by MTT assay; format: functional, cell-based; settings: 4T1, 72 h
[11] = tested on: B16-F10; test: Induction of cell cycle arrest in mouse B16-F10 cells assessed as cell accumulation incubated for 24 hrs by PI staining based flow cytometry; format: functional; settings: dose 2.5-10 µM
[12] = biological target: T1, Histone deacetylase 3 (Mus musculus); test: Inhibition of HDAC3 in mouse B16-F10 cells assessed as increase in Ac-H3 level incubated for 24 hrs by Western blot analysis; format: cell-based; settings: dose 2.5-10 µM
[13] = tested on: HCT-116; test: cells; format: functional; settings: Homo sapiens, time 72 hrs
[14] = tested on: B16-F10; test: Induction of apoptosis in mouse B16-F10 cells assessed as late-stage apoptosis at 2.5 uM incubated for 48 hrs by Annexin V-FITC/PI staining based flow cytometry relative to control; format: functional
[15] = AUMC (0 to infinity) in male Sprague-Dawley rat at 20 mg/kg, po measured for 0.083 to 12 hrs by LC-MS/MS analysis; format: ADME, organism-based; settings: in vivo, time 0.083-12 hrs
[16] = Toxicity in male C57BL/6J mouse implanted with mouse B16-F10 cells assessed as histopathological damage in kidney at 50 mg/kg, IG treated for 14 days consecutively by H and E staining based analysis; format: organism-based; settings: in vivo, po, 336 h, time 14 day
[17] = tested on: B16-F10; test: Induction of antitumor immunity in mouse B16-F10 cells implanted in male C57BL/6J mouse assessed as increase in T cell infiltration at 50 mg/kg, IG treated for 14 days consecutively by immunofluorescence based analysis; format: functional, organism-based; settings: time 14.0 day
[18] = biological target: T1, Histone deacetylase 3 (Mus musculus); test: In vivo inhibition of HDAC3 in mouse B16-F10 cells implanted in male C57BL/6J mouse assessed as increase in Ac-H3 level at 50 mg/kg, IG treated for 14 days consecutively by Western blot analysis; format: functional, organism-based; settings: time 14.0 day
[19] = Tmax in male Sprague-Dawley rat at 20 mg/kg, po measured for 0.083 to 12 hrs by LC-MS/MS analysis; format: ADME, organism-based; settings: in vivo, time 0.083-12 hrs
[20] = biological target: T1, Histone deacetylase 3 (Mus musculus); test: In vivo inhibition of HDAC3 in mouse B16-F10 cells implanted in male C57BL/6J mouse assessed as increase in Ac-H3 level at 50 mg/kg, IG treated for 14 days consecutively by immunofluorescence based analysis; format: functional, organism-based; settings: time 14.0 day
[21] = biological target: Programmed cell death 1 ligand 1 (Mus musculus) (UniProt Q9EP73); test: Induction of PD-L1 degradation in mouse B16-F10 cells at 5 uM incubated for 24 hrs in presence of MG-132 by Western blot analysis; format: cell-based
Programmed cell death 1 ligand 1 (Mus musculus), sequence (Q9EP73 whole entry): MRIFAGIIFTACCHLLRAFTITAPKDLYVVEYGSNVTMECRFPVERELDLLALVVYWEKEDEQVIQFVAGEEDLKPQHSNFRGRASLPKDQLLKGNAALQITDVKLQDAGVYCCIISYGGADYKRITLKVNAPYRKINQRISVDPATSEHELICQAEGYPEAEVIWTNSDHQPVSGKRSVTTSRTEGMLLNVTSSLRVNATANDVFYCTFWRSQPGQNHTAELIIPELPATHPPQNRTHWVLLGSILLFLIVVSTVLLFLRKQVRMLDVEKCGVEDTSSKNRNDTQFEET

[22] = tested on: 4T1; test: Induction of DNA damage in mouse 4T1 cells assessed as increase in gamma-H2AX level at 2 uM incubated for 24 hrs by Western blot analysis; format: functional, cell-based
[23] = tested on: 4T1; test: Antitumor activity against mouse 4T1 cells implanted in mouse at 50 mg/kg/day relative to control; format: functional; settings: read-out: TGI
[24] = tested on: 4T1; test: Synergistic induction of DNA damage in mouse 4T1 cells implanted in mouse assessed as increase in gamma-H2AX level at 25 mg/kg/day in presence of olaparib by Western blot analysis; format: functional, organism-based
[25] = tested on: 4T1; test: Induction of DNA damage in mouse 4T1 cells implanted in mouse assessed as decrease in PARP level at 50 mg/kg/day by Western blot analysis; format: functional, organism-based
[26] = AUC (0 to t) in male Sprague-Dawley rat at 2 mg/kg, iv measured for 0.083 to 12 hrs by LC-MS/MS analysis; format: ADME, organism-based; settings: in vivo, time 0.083-12 hrs
[27] = tested on: B16-F10; test: Induction of antitumor immunity in mouse B16-F10 cells implanted in male C57BL/6J mouse assessed as CD3+CD4+ T cell infiltration at 50 mg/kg, IG treated for 14 days consecutively by flow cytometry (reference value: 7.4 %); format: functional; settings: time 14 day
[28] = AUMC (0 to infinity) in male Sprague-Dawley rat at 2 mg/kg, iv measured for 0.083 to 12 hrs by LC-MS/MS analysis; format: ADME, organism-based; settings: in vivo, time 0.083-12 hrs
[29] = Half life in male Sprague-Dawley rat at 20 mg/kg, po measured for 0.083 to 12 hrs by LC-MS/MS analysis; format: ADME, organism-based; settings: in vivo, time 0.083-12 hrs
[30] = AUC (0 to t) in male Sprague-Dawley rat at 20 mg/kg, po measured for 0.083 to 12 hrs by LC-MS/MS analysis; format: ADME, organism-based; settings: in vivo, time 0.083-12 hrs
[31] = tested on: 4T1; test: Induction of DNA damage in mouse 4T1 cells implanted in mouse assessed as increase in gamma-H2AX level at 50 mg/kg/day by immunofluorescence based analysis; format: functional, organism-based
[32] = Toxicity in male C57BL/6J mouse implanted with mouse B16-F10 cells assessed as body weight change at 50 mg/kg, IG treated for 14 days consecutively; format: organism-based; settings: in vivo, po, 336 h, time 14 day
[33] = biological target: Programmed cell death 1 ligand 1 (Mus musculus) (UniProt Q9EP73); test: Induction of PD-L1 degradation in mouse B16-F10 cells at 5 uM incubated for 24 hrs in presence of Bafilomycin A1 by Western blot analysis; format: cell-based
[34] = Half life in male Sprague-Dawley rat at 2 mg/kg, iv measured for 0.083 to 12 hrs by LC-MS/MS analysis; format: ADME, organism-based; settings: in vivo, time 0.083-12 hrs

Row | IC50 [2] | inhibition [3] | IC50 [8] | IC50 [10] | inhibition [12] | SMILES | inhibition at 10 µM [1] | Activity [4] | inhibition at 10 µM [5] | Activity [6] | inhibition at 10 µM [7] | inhibition at 5 µM [9] | Activity [11] | inhibition at 10 µM [13] | Activity [14] | further results
1 | 6.07 µM | Active | 4.57 µM | 7.57 µM | Dose-dependent-effect | CCCNNC(=O)c1ccc(NC(=O)c2cnc(-c3ccc(OC(F)(F)F)cc3)s2)cc1 | 32.8% | 45.8% | < 50% | Dose-dependent-effect; Activity Similar To Vorinostat | 52.6% | > 70% | Dose-dependent-effect | < 50% | 24% | 
2 | 5.22 µM | Active | 1.06 µM | 9.83 µM | Dose-dependent-effect | CCCNNC(=O)CCCCCCNC(=O)c1cnc(-c2ccc(NC(=O)OC(C)(C)C)cc2)s1 | 33.1% | 43.5% | < 50% | Dose-dependent-effect; Activity Similar To Vorinostat | 73.1% | > 70% | Dose-dependent-effect | 93.6% | 20.6% | AUMC [15]: 97.74 hr.hr.ug/L; Activity [16]: Non-toxic; Activity [17]: Active; inhibition [18]: Active; Tmax [19]: 0.72 h; inhibition [20]: Active; Activity [21]: Active; Activity [22]: Active; inhibition in vivo at 50 mg/kg/day [23]: 64%; Activity [24]: Active; Activity [25]: Active; AUC(0-t) [26]: 0.657 µg·h/mL; Activity [27]: 12%; AUMC [28]: 238.68 hr.hr.ug/L; half-life [29]: 2.84 h; AUC(0-t) [30]: 0.0308 µg·h/mL; Activity [31]: Active; Activity [32]: Non-toxic; Activity [33]: inactive; half-life [34]: 2.21 h
